In ChEMBL document CHEMBL4831553, “Heterocyclic Compounds as Dihydroorotate Dehydrogenase Inhibitors for Treating Acute Myelogenous Leukemia (AML)” (ACS Med Chem Lett, 2021):

What was measured:
[1] = biological target: Dihydroorotate dehydrogenase (quinone), mitochondrial (Homo sapiens, UniProt Q02127); assay: Inhibition of human DHODH using dihydroorotate as substrate and CoQ6 as co-substrate by DCIP dye based spectrophotometry analysis
MOLM-13 = assay: Antiproliferative activity against human MOLM-13 assessed as reduction in cell viability incubated for 72 hrs by Cell titer-Glo assay; assay type: functional, cell-based; conditions: MOLM-13, 72 h

Chain of Dihydroorotate dehydrogenase (quinone), mitochondrial (Q02127 whole entry): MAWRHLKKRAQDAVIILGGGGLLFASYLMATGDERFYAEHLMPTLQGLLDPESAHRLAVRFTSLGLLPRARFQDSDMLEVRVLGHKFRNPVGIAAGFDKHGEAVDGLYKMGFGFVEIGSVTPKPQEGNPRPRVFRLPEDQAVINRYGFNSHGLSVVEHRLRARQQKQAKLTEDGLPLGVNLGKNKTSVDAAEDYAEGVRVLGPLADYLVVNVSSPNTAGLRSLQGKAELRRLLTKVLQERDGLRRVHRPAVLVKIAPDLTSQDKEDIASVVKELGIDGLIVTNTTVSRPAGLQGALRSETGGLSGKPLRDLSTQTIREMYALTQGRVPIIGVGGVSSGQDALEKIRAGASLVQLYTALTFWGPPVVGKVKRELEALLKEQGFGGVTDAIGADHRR

| Compound | IC50 [1] [nM] | IC50 (MOLM-13) [nM] |
| --- | --- | --- |
| CCn1c(CO)nn(-c2cc(O[C@@H](C)C(F)(F)F)c3c(Oc4c(F)ccc(N(C)C)c4Cl)nccc3c2)c1=O | 0.4 | 0.3 |
| CCn1c(CO)nn(-c2nc(OC(C)C(F)(F)F)c3c(Oc4c(F)cccc4Cl)nccc3c2F)c1=O (configuration not stated) | 0.59 | 0.4 |
| CCn1c(CO)nn(-c2cc(O[C@@H](C)C(F)(F)F)c3c(Oc4c(F)ccc(OCCOC)c4Cl)nccc3c2)c1=O | 0.41 | 0.3 |

These reach a lower IC50 [1]. Values come first.

| IC50 [1] [nM] | IC50 (MOLM-13) [nM] | Compound |
| --- | --- | --- |
| 0.38 | 0.46 | CCn1c(CO)nn(-c2nc(O[C@@H](C)C(F)(F)F)c3c(Nc4c(F)cccc4Cl)nncc3c2F)c1=O |
| 0.3 | 0.3 | CCn1c(CO)nn(-c2cc(O[C@@H](C)C(F)(F)F)c3c(Oc4c(F)ccc(OC)c4Cl)nccc3c2)c1=O |
| 0.2 | 0.2 | CCn1c(CO)nn(-c2nc(O[C@@H](C)C(F)(F)F)c3c(Oc4c(F)cccc4Cl)nncc3c2F)c1=O |
